# Patent US9867376B2, “Herbicidal compositions comprising N-tetrazol-5-yl)- or N-(triazol-5-yl)arylcarboxamides” (priority 2012, dated 2018)
# Columns and labels:
# Format in all cases: in vivo
# [1] = system: Avena fatua; assay: Greenhouse trial, post-emergence, visual herbicidal effect; settings: alone
# Experimental: (§1) The weed seeds were sown in pots (diameter 8 cm) with sandy loam soil and germinated under optimum conditions. The herbides were applied by the post-emergence method onto the pots with the cultures, at a spray volume of 300 I/ha. The herbicides were applied on their own and in combination. The trial was conducted in a greenhouse under optimum growth conditions. The herbicidal effects were assessed visually by comparison of untreated and treated plants. The percentages mean: 0%=no effects, 100%=the plants die off completely). The percentages are used to calculate interactions between individual treatments and combination treatment according to S. R. Colby, Weeds 15, pages 20 to 22 (1967).
# (§2) The abbreviations denote: • a.i.=active ingredient • E^C=expected value according to Colby (E^C=A+B−A×B100) • Δ=difference (%) of the measured value to the expected value (%) (measured value minus expected value)
# (§3) Evaluation: • measured value E is greater than E^C:→synergism (+Δ) • measured value E equals E^C:→additive effect • measured value E is smaller than E^C:→antagonism (−Δ)
# [2] = system: Papaver rhoeas; assay: as above; settings: Table 5-06, greenhouse, alone, 3 g of a.i./ha
# Experimental: as §1, §2, §3
# [3] = system: Polygonum convolvulus; assay: as above; settings: Table 5-08, greenhouse, alone, 3 g of a.i./ha
# Experimental: as §1, §2, §3
# [4] = system: Viola tricolor; assay: as above; settings: Table 5-09, greenhouse, alone, 3 g of a.i./ha
# Experimental: as §1, §2, §3
# [5] = system: Centaurea cyanis; assay: as above; settings: Table 5-50, greenhouse, alone, 8 g of a.i./ha
# Experimental: as §1, §2, §3
# [6] = system: Euphorbia heterophylla; assay: Field trial, post-emergence, visual scoring; settings: Table 5-51, field, alone, 25 g of a.i./ha
# Experimental: (§4) The tests were conducted outdoors (plot trials, 10 m^2 per plot, 2 repetitions, spray application with 200-300 liters of water per hectare). Crops and broad-leaved weeds/weed grasses were sown under customary field conditions. In addition, a natural weed flora also appeared. Application was by the post-emergence method. The application rates of the herbicidally active compounds applied on their own or in combinations are likewise shown in the tables below. Evaluations were by visual scoring (using a 0-100% scale) after application by comparison of treated and untreated test variants.
# as §2, §3
# [7] = system: Brachiaria platyphylla; assay: Greenhouse trial, post-emergence, visual herbicidal effect
# Experimental: as §1, §2, §3
# [8] = system: Setaria viridis; assay: as above; settings: alone
# Experimental: as §1, §2, §3
# [9] = system: Veronica hederifolia; assay: Field trial, post-emergence, visual scoring; settings: alone, 25 g of a.i./ha
# Experimental: as §4, §2, §3
# [10] = system: Bidens pilosa; assay: Greenhouse trial, post-emergence, visual herbicidal effect
# Experimental: as §1, §2, §3
# [11] = system: Digitaria sanguinalis; assay: as above
# Experimental: as §1, §2, §3
# [12] = system: Echinochloa crus-galli; assay: as above
# Experimental: as §1, §2, §3
# [13] = system: Pharbitis purpurea; assay: as above; settings: alone
# Experimental: as §1, §2, §3
# [14] = system: Xanthium strumarium; assay: as above; settings: alone
# Experimental: as §1, §2, §3
# [15] = system: Ambrosia artemisiifolia; assay: as above; settings: alone
# Experimental: as §1, §2, §3
compound,measurement,setting,value
Cc1c(C(=O)Nc2nnnn2C)ccc(C(F)(F)F)c1S(C)(=O)=O [A1-7],Activity [%] against Avena fatua,"[1]; Table 5-05, greenhouse, 3 g of a.i./ha",0%
same,Activity [%] against Avena fatua,"[1]; Table 5-07, greenhouse, 3 g of a.i./ha",0%
same,Activity [%] against Papaver rhoeas,[2],60%
same,Activity [%] against Polygonum convolvulus,[3],10%
same,Activity [%] against Viola tricolor,[4],50%
COc1c(C(=O)Nc2nnnn2C)ccc(C(F)(F)F)c1SC [A1-44],Activity [%] against Avena fatua,"[1]; Table 5-49, greenhouse, 4 g of a.i./ha",0%
same,Activity [%] against Centaurea cyanis,[5],50%
same,Activity [%] against Euphorbia heterophylla,[6],58%
Cn1nnnc1NC(=O)c1ccc(S(C)(=O)=O)c(COCC(F)(F)F)c1Cl [A1-61],Activity [%] against Brachiaria platyphylla,"[7]; Table 5-64, greenhouse, alone, 6 g of a.i./ha",0%
same,Activity [%] against Setaria viridis,"[8]; Table 5-65, greenhouse, 3 g of a.i./ha",0%
same,Activity [%] against Veronica hederifolia,"[9]; Table 5-66, field",68%
COCCOCc1c(S(C)(=O)=O)ccc(C(=O)Nc2nnnn2C)c1Cl [A1-63],Activity [%] against Bidens pilosa,"[10]; Table 5-71, greenhouse, alone, 8 g of a.i./ha",50%
same,Activity [%] against Brachiaria platyphylla,"[7]; Table 5-67, greenhouse, alone, 8 g of a.i./ha",10%
same,Activity [%] against Digitaria sanguinalis,"[11]; Table 5-68, greenhouse, alone, 8 g of a.i./ha",45%
same,Activity [%] against Echinochloa crus-galli,"[12]; Table 5-69, greenhouse, alone, 8 g of a.i./ha",85%
same,Activity [%] against Pharbitis purpurea,"[13]; Table 5-72, greenhouse, 4 g of a.i./ha",35%
same,Activity [%] against Setaria viridis,"[8]; Table 5-70, greenhouse, 4 g of a.i./ha",50%
same,Activity [%] against Xanthium strumarium,"[14]; Table 5-73, greenhouse, 8 g of a.i./ha",80%
same,Activity [%] against Veronica hederifolia,"[9]; Table 5-74, field",68%
CCS(=O)(=O)c1ccc(C(=O)Nc2nnnn2C)c(Cl)c1C1=NOC(COC)C1 (centres unmarked) [A1-66],Activity [%] against Ambrosia artemisiifolia,"[15]; Table 5-75, greenhouse, 6 g of a.i./ha",35%
same,Activity [%] against Veronica hederifolia,"[9]; Table 5-76, field",75%
COc1c(C(=O)Nc2nnnn2C)ccc(C(F)F)c1SC [A1-81],Activity [%] against Brachiaria platyphylla,"[7]; Table 5-94, greenhouse, alone, 1 g of a.i./ha",10%
same,Activity [%] against Echinochloa crus-galli,"[12]; Table 5-95, greenhouse, alone, 1 g of a.i./ha",10%
Cn1ncnc1NC(=O)c1ccc(C(F)(F)F)c(S(C)(=O)=O)c1Cl [A2-9],Activity [%] against Brachiaria platyphylla,"[7]; Greenhouse, dosage 1 g of a.i./ha, Table 5-105",0%
same,Activity [%] against Digitaria sanguinalis,"[11]; Greenhouse, dosage 2 g of a.i./ha",65%
same,Activity [%] against Echinochloa crus-galli,"[12]; Greenhouse, dosage 1 g of a.i./ha, Table 5-108",0%
COc1c(Cl)ccc(Cl)c1C(=O)O [dicamba],Activity [%] against Brachiaria platyphylla,"[7]; Greenhouse, dosage 12.5 g of a.i./ha, Table 5-105",0%
same,Activity [%] against Brachiaria platyphylla,"[7]; Table 5-64, greenhouse, alone, 25 g of a.i./ha",10%
same,Activity [%] against Brachiaria platyphylla,"[7]; Table 5-94, greenhouse, alone, 12.5 g of a.i./ha",0%
same,Activity [%] against Digitaria sanguinalis,"[11]; Greenhouse, dosage 12.5 g of a.i./ha",0%
same,Activity [%] against Echinochloa crus-galli,"[12]; Greenhouse, dosage 12.5 g of a.i./ha, Table 5-108",0%
same,Activity [%] against Echinochloa crus-galli,"[12]; Greenhouse, dosage 12.5 g of a.i./ha, Table 5-115",0%
same,Activity [%] against Echinochloa crus-galli,"[12]; Table 5-95, greenhouse, alone, 12.5 g of a.i./ha",0%
same,Activity [%] against Setaria viridis,"[8]; Table 5-65, greenhouse, 25 g of a.i./ha",0%
O=c1[nH]c2c(c(=O)n1C1CCCCC1)CCC2 [lenacil],Activity [%] against Ambrosia artemisiifolia,"[15]; Table 5-29, greenhouse, 16 g of a.i./ha",0%
same,Activity [%] against Ambrosia artemisiifolia,"[15]; Table 5-32, greenhouse, 4 g of a.i./ha",0%
same,Activity [%] against Bidens pilosa,"[10]; Greenhouse, dosage 4 g of a.i./ha",0%
same,Activity [%] against Bidens pilosa,"[10]; Table 5-28, greenhouse, alone, 4 g of a.i./ha",0%
same,Activity [%] against Bidens pilosa,"[10]; Table 5-33, greenhouse, alone, 4 g of a.i./ha",0%
same,Activity [%] against Bidens pilosa,"[10]; Table 5-71, greenhouse, alone, 400 g of a.i./ha",0%
same,Activity [%] against Brachiaria platyphylla,"[7]; Greenhouse, dosage 4 g of a.i./ha, Table 5-109",0%
same,Activity [%] against Brachiaria platyphylla,"[7]; Greenhouse, dosage 4 g of a.i./ha, Table 5-110",0%
same,Activity [%] against Brachiaria platyphylla,"[7]; Table 5-55, greenhouse, alone, 4 g of a.i./ha",0%
same,Activity [%] against Brachiaria platyphylla,"[7]; Table 5-57, greenhouse, alone, 4 g of a.i./ha",0%
same,Activity [%] against Brachiaria platyphylla,"[7]; Table 5-67, greenhouse, alone, 800 g of a.i./ha",0%
same,Activity [%] against Digitaria sanguinalis,"[11]; Table 5-35, greenhouse, alone, 4 g of a.i./ha",0%
same,Activity [%] against Digitaria sanguinalis,"[11]; Table 5-68, greenhouse, alone, 400 g of a.i./ha",0%
same,Activity [%] against Echinochloa crus-galli,"[12]; Table 5-69, greenhouse, alone, 400 g of a.i./ha",0%
same,Activity [%] against Pharbitis purpurea,"[13]; Table 5-30, greenhouse, 4 g of a.i./ha",0%
same,Activity [%] against Pharbitis purpurea,"[13]; Table 5-34, greenhouse, 4 g of a.i./ha",0%
same,Activity [%] against Pharbitis purpurea,"[13]; Table 5-72, greenhouse, 100 g of a.i./ha",0%
same,Activity [%] against Setaria viridis,"[8]; Table 5-27, greenhouse, 8 g of a.i./ha",0%
same,Activity [%] against Setaria viridis,"[8]; Table 5-31, greenhouse, 8 g of a.i./ha",0%
same,Activity [%] against Setaria viridis,"[8]; Table 5-70, greenhouse, 100 g of a.i./ha",0%
same,Activity [%] against Xanthium strumarium,"[14]; Table 5-56, greenhouse, 4 g of a.i./ha",0%
same,Activity [%] against Xanthium strumarium,"[14]; Table 5-73, greenhouse, 400 g of a.i./ha",0%
